Laboratory results taken from PubChem BioAssay AID330 (DTP/NCI, 2004).
Values joined by “and” are separate entries in the source; they are usually repeats but may differ in a detail not shown here. Equal entries are not always repeated. Inconclusive results and toxic doses are left out. Rule for the calls: active = survival T/C of 150% or more; inactive = T/C below 125% in these data. Square brackets hold non-standard residues; d marks the D form. Peptide text beside a SMILES is read from it. * marks the point of attachment. ξ: configuration not given here. Cbz = O=C(OCc1ccccc1)*; ξV = CC(C)C(N)C(=O)O; Sar = CNCC(=O)O

Tested on: P388 leukemia ip, CD2F1 mice, survival T/C
Assay: NCI In Vivo Anticancer Drug Screen. Data for tumor model P388 Leukemia (intraperitoneal) in CD2F1 (CDF1) mice
Conditions: endpoint: median survival time, higher = longer survival
Method in brief: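 Mice carrying the transplanted tumor received test compound or vehicle. Survival was recorded in each group, and the value is the treated-group measurement divided by that of the vehicle-treated control group.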

[1] = dose: 50.0 mg/kg/injection, schedule: Q01DX009 (ip), vehicle: Klucel (hydroxypropylcellulose) (HPC)
[2] = dose: 100.0 mg/kg/injection, schedule: Q01DX009 (ip), vehicle: Klucel (hydroxypropylcellulose) (HPC)
[3] = dose: 200.0 mg/kg/injection, schedule: Q01DX009 (ip), vehicle: Klucel (hydroxypropylcellulose) (HPC)
[4] = dose: 50.0 mg/kg/injection, schedule: Q01DX009 (ip), vehicle: saline with Tween-80
[5] = dose: 100.0 mg/kg/injection, schedule: Q01DX009 (ip), vehicle: saline with Tween-80
[6] = dose: 200.0 mg/kg/injection, schedule: Q01DX009 (ip), vehicle: saline with Tween-80
[7] = dose: 12.5 mg/kg/injection, schedule: Q01DX005 (ip), vehicle: saline with Tween-80
[8] = dose: 25.0 mg/kg/injection, schedule: Q01DX005 (ip), vehicle: saline with Tween-80
[9] = dose: 50.0 mg/kg/injection, schedule: Q01DX005 (ip), vehicle: saline with Tween-80
[10] = dose: 100.0 mg/kg/injection, schedule: Q01DX005 (ip), vehicle: saline with Tween-80
[11] = dose: 60.0 mg/kg/injection, schedule: Q01DX005 (ip), vehicle: saline with Tween-80
[12] = dose: 120.0 mg/kg/injection, schedule: Q01DX005 (ip), vehicle: saline with Tween-80
[13] = dose: 25.0 mg/kg/injection, schedule: Q01DX005 (ip), vehicle: Klucel (hydroxypropylcellulose) (HPC)
[14] = dose: 50.0 mg/kg/injection, schedule: Q01DX005 (ip), vehicle: Klucel (hydroxypropylcellulose) (HPC)
[15] = dose: 100.0 mg/kg/injection, schedule: Q01DX005 (ip), vehicle: Klucel (hydroxypropylcellulose) (HPC)
[16] = dose: 12.5 mg/kg/injection, schedule: Q01DX005 (ip), vehicle: Klucel (hydroxypropylcellulose) (HPC)
[17] = dose: 200.0 mg/kg/injection, schedule: Q01DX005 (ip), vehicle: saline with Tween-80
[18] = dose: 100.0 mg/kg/injection, schedule: Q01DX001 (ip), vehicle: Klucel (hydroxypropylcellulose) (HPC)
[19] = dose: 200.0 mg/kg/injection, schedule: Q01DX001 (ip), vehicle: Klucel (hydroxypropylcellulose) (HPC)

Measured: T/C

CCOc1ccc(/C=C2\CCc3ccccc3C2=O)cc1
inactive: [1] 98 % of control | [2] 102 % of control | [3] 99 % of control

O=C1Cc2ccccc2N1C1c2ccccc2C=Cc2ccccc21
inactive: [4] 95 % of control | [5] 86 % of control | [6] 89 % of control

CNC(=O)Nc1nnnc2ccccc12
inactive: dose: 25.0 mg/kg/injection, schedule: Q04DX003 (ip), vehicle: saline with Tween-80 90 % of control | dose: 50.0 mg/kg/injection, schedule: Q04DX003 (ip), vehicle: saline with Tween-80 100 % of control | dose: 100.0 mg/kg/injection, schedule: Q04DX003 (ip), vehicle: saline with Tween-80 100 % of control

O=C1CC23CCCN2CCc2cc4c(cc2C3=C1O)OCO4 (centres undefined)
inactive: dose: 1.56 mg/kg/injection, schedule: Q01DX009 (ip), vehicle: water 98 % of control | dose: 3.13 mg/kg/injection, schedule: Q01DX009 (ip), vehicle: water 104 % of control | dose: 6.25 mg/kg/injection, schedule: Q01DX009 (ip), vehicle: water 98 % of control | dose: 12.5 mg/kg/injection, schedule: Q01DX009 (ip), vehicle: water 92 % of control | dose: 25.0 mg/kg/injection, schedule: Q01DX009 (ip), vehicle: water 88 % of control

O=c1[nH]c(=S)[nH]c2nccnc12
inactive: dose: 100.0 mg/kg/injection, schedule: Q04DX003 (ip), vehicle: Klucel (hydroxypropylcellulose) (HPC) 105 % of control | dose: 200.0 mg/kg/injection, schedule: Q04DX003 (ip), vehicle: Klucel (hydroxypropylcellulose) (HPC) 118 % of control | dose: 400.0 mg/kg/injection, schedule: Q04DX003 (ip), vehicle: Klucel (hydroxypropylcellulose) (HPC) 112 % of control

CC(C)(O)C1OCC(C2CCC3(C)C4=CCC5C(C)(C)C(O)CCC5(C)C4CCC23C)CC1O (centres undefined)
inactive: dose: 2.5 mg/kg/injection, schedule: Q01DX009 (ip), vehicle: alcohol 98 % of control | dose: 5.0 mg/kg/injection, schedule: Q01DX009 (ip), vehicle: alcohol 101 % of control | dose: 10.0 mg/kg/injection, schedule: Q01DX009 (ip), vehicle: alcohol 100 % of control | dose: 20.0 mg/kg/injection, schedule: Q01DX009 (ip), vehicle: alcohol 99 % of control | dose: 40.0 mg/kg/injection, schedule: Q01DX009 (ip), vehicle: alcohol 110 % of control

CC1CN=C(c2ccc(NC(=O)NCCCCCCCCCCCCNC(=O)Nc3ccc(C4=NCC(C)N4)cc3)cc2)N1 (centres undefined)
inactive: dose: 6.25 mg/kg/injection, schedule: Q01DX005 (ip), vehicle: saline with Tween-80 103 % of control | [7] 103 % of control | [8] 108 % of control | [9] 106 % of control | [10] 116 % of control

COc1ccc2n[se]nc2c1
inactive: [11] 93 % of control | [12] 93 % of control

COC(=O)NC12CC3CC(C(C)O1)C2N(Cc1ccccc1)C3 (centres undefined)
inactive: [13] 100 % of control | [14] 93 % of control | [15] 94 % of control

CCN1CCC[C@]2(C)[C@H]3CC[C@@]4(C)[C@@H](CC[C@]4(C)O)[C@@H]3CC[C@@H]12
inactive: [16] 101 % of control | [13] 97 % of control | [14] 93 % of control and 95 % of control

CC1(N)C(=O)NC(=O)c2cnccc21 (centres undefined)
inactive: dose: 100.0 mg/kg/injection, schedule: Q01DX001 (ip), vehicle: saline 104 % of control | dose: 200.0 mg/kg/injection, schedule: Q01DX001 (ip), vehicle: saline 107 % of control | dose: 400.0 mg/kg/injection, schedule: Q01DX001 (ip), vehicle: saline 97 % of control

Cc1cc(N/N=C/c2c(C)n(C)n(-c3ccccc3)c2=O)c2cc3c(cc2n1)OCO3
inactive: dose: 6.25 mg/kg/injection, schedule: Q01DX005 (ip), vehicle: Klucel (hydroxypropylcellulose) (HPC) 103 % of control | [16] 113 % of control | [13] 108 % of control

CSc1ccc(N2C(=O)CSC2=O)cc1
inactive: [4] 106 % of control | [5] 114 % of control | [6] 109 % of control

CN(C)c1ccc(NC(=O)c2ccccc2O)cc1
inactive: [4] 113 % of control | [5] 104 % of control | [6] 99 % of control

COC(=O)CNC(=O)C(NC(=O)C1CCCN1C(=O)OCc1ccccc1)C(C)C (stereo not drawn) (Cbz-Pro-Val-Gly-OMe; configuration not given here)
inactive: [9] 105 % of control | [10] 100 % of control | [17] 100 % of control

CN1CCNc2c1cc(O)c1c2C(=O)c2ccccc2C1=O
inactive: [18] 101 % of control | [19] 94 % of control | dose: 400.0 mg/kg/injection, schedule: Q01DX001 (ip), vehicle: Klucel (hydroxypropylcellulose) (HPC) 98 % of control

CC(C)C(NC(=O)CN(C)C(=O)OCc1ccccc1)C(=O)O (centres undefined) (Cbz-[Sar]-[ξV]-OH)
inactive: [9] 100 % of control | [10] 102 % of control

Cc1nn(-c2ccccc2)nc1C(=O)Nc1ccc2[nH]ncc2c1
inactive: [11] 91 % of control | [12] 94 % of control | dose: 240.0 mg/kg/injection, schedule: Q01DX005 (ip), vehicle: saline with Tween-80 86 % of control

CC1(C)NC(=O)N(Cc2ccccc2)C1=O
inactive: [1] 102 % of control | dose: 50.0 mg/kg/injection, schedule: Q01DX009 (ip), vehicle: saline 108 % of control | [2] 101 % of control | dose: 100.0 mg/kg/injection, schedule: Q01DX009 (ip), vehicle: saline 108 % of control | [3] 102 % of control | dose: 200.0 mg/kg/injection, schedule: Q01DX009 (ip), vehicle: saline 104 % of control

O=C(O)COc1ccc(F)c(F)c1
inactive: dose: 60.0 mg/kg/injection, schedule: Q01DX005 (ip), vehicle: Klucel (hydroxypropylcellulose) (HPC) 101 % of control and 104 % of control | dose: 120.0 mg/kg/injection, schedule: Q01DX005 (ip), vehicle: Klucel (hydroxypropylcellulose) (HPC) 106 % of control and 94 % of control | dose: 240.0 mg/kg/injection, schedule: Q01DX005 (ip), vehicle: Klucel (hydroxypropylcellulose) (HPC) 100 % of control and 86 % of control

Cc1cc2c(cc1C)-c1nn(-c3ccccc3)c(-c3ccc(Cl)cc3)c1CCO2
inactive: [7] 92 % of control | [8] 99 % of control | [9] 93 % of control and 94 % of control

CCC(c1ccc(OC)cc1)c1cc2c(cc1OC)OCO2 (centres undefined)
inactive: [14] 97 % of control | [15] 106 % of control | dose: 200.0 mg/kg/injection, schedule: Q01DX005 (ip), vehicle: Klucel (hydroxypropylcellulose) (HPC) 113 % of control

NNC(=O)CN(CC(=O)NN)CC(=O)NN
inactive: dose: 50.0 mg/kg/injection, schedule: Q01DX005 (ip), vehicle: water 99 % of control | dose: 100.0 mg/kg/injection, schedule: Q01DX005 (ip), vehicle: water 101 % of control | dose: 200.0 mg/kg/injection, schedule: Q01DX005 (ip), vehicle: water 110 % of control

CCCC(O)(CC)/C(C)=N/O (centres undefined)
inactive: [4] 96 % of control | [5] 91 % of control | [6] 91 % of control

Cc1ccc(-n2c3nc(=O)n(C)c(=O)c-3nc3ccccc32)cc1C
inactive: [18] 95 % of control | [19] 92 % of control

C[As](C)SC(CO)C1OC2OC(C)(C)OC2C1O (centres undefined)
inactive: dose: 50.0 mg/kg/injection, schedule: Q01DX009 (ip), vehicle: saline + alcohol 108 % of control

[CH3][Sn]([CH3])([CH3])[O]C(=O)CNC(=O)c1ccccc1
inactive: dose: 1.56 mg/kg/injection, schedule: Q01DX001 (ip), vehicle: Klucel (hydroxypropylcellulose) (HPC) 103 % of control | dose: 3.12 mg/kg/injection, schedule: Q01DX001 (ip), vehicle: Klucel (hydroxypropylcellulose) (HPC) 103 % of control

C=C1C2CCC3C4(C)CCCC(C)(C(=O)O)C4CCC3(C2)C1OC(=O)/C(C)=C/C (centres undefined)
inactive: [16] 102 % of control | [13] 96 % of control | [14] 90 % of control | [9] 99 % of control | [15] 87 % of control | [10] 95 % of control | [17] 95 % of control | dose: 400.0 mg/kg/injection, schedule: Q01DX005 (ip), vehicle: saline with Tween-80 95 % of control

N#Cc1c(-c2ccc(Cl)cc2)cn2c1[nH]c(=O)c1c3c(sc12)CCCC3
inactive: [11] 87 % of control | [12] 86 % of control
